Measured values from PubChem BioAssay (NCI).
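Five concentrations, 48 hours, 96-well plates. Abbreviation: GI50, concentration required for 50% inhibition of growth. TGI: total growth inhibition.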

Key:
Assay in all cases: growth of human tumour cells (NCI), 48 h
SF-295 CNS = tested on: SF-295 CNS
EKVX NSCLC = tested on: EKVX NSCLC
HOP-92 NSCLC = tested on: HOP-92 NSCLC
LOX IMVI melanoma = tested on: LOX IMVI melanoma
T-47D breast = tested on: T-47D breast
MDA-MB-435 = tested on: MDA-MB-435
NCI/ADR-RES ovarian = tested on: NCI/ADR-RES ovarian
NCI-H23 lung = tested on: NCI-H23 lung
HS 578T breast = tested on: HS 578T breast
786-0 renal = tested on: 786-0 renal
SK-MEL-5 melanoma = tested on: SK-MEL-5 melanoma
UACC-257 melanoma = tested on: UACC-257 melanoma
OVCAR-3 ovarian = tested on: OVCAR-3 ovarian
TK-10 renal = tested on: TK-10 renal
DU-145 prostate = tested on: DU-145 prostate
SF-268 CNS = tested on: SF-268 CNS
IGROV1 ovarian = tested on: IGROV1 ovarian
HCC-2998 colon = tested on: HCC-2998 colon
A549 NSCLC = tested on: A549 NSCLC
NCI-H460 lung = tested on: NCI-H460 lung
CCRF-CEM leukemia = tested on: CCRF-CEM leukemia
CAKI-1 renal = tested on: CAKI-1 renal
SK-MEL-2 melanoma = tested on: SK-MEL-2 melanoma
COLO 205 colon = tested on: COLO 205 colon
HOP-62 NSCLC = tested on: HOP-62 NSCLC
HT29 colon = tested on: HT29 colon
OVCAR-4 ovarian = tested on: OVCAR-4 ovarian
SW-620 colon = tested on: SW-620 colon

Question: For `C=C1C(=O)O[C@H]2[C@H]1CC/C(CNC(=O)c1cccc3ccccc13)=C\CC[C@@]1(C)O[C@@H]21`, which GI50 (SF-295 CNS) is on record?
Answer: 6.15 µM

Question: And the TGI (SF-295 CNS)?
Answer: 21.6 µM

Question: What about the GI50 (EKVX NSCLC) of the same compound?
Answer: 2.2 µM

Question: And the TGI (EKVX NSCLC)?
Answer: 8.79 µM

Question: And the GI50 (HOP-92 NSCLC)?
Answer: 1.83 µM

Question: What about the TGI (HOP-92 NSCLC) of the same compound?
Answer: 4.44 µM

Question: What about the GI50 (LOX IMVI melanoma) of the same compound?
Answer: 1.53 µM

Question: And the TGI (LOX IMVI melanoma)?
Answer: 3.19 µM

Question: And the GI50 (T-47D breast)?
Answer: 2.55 µM

Question: And the TGI (T-47D breast)?
Answer: 9.08 µM

Question: And the GI50 (MDA-MB-435)?
Answer: 1.99 µM

Question: What about the TGI (MDA-MB-435) of the same compound?
Answer: 6.56 µM

Question: What about the GI50 (NCI/ADR-RES ovarian) of the same compound?
Answer: 4.52 µM

Question: What about the TGI (NCI/ADR-RES ovarian) of the same compound?
Answer: 46.9 µM

Question: What about the GI50 (NCI-H23 lung) of the same compound?
Answer: 3.67 µM

Question: What about the TGI (NCI-H23 lung) of the same compound?
Answer: 19.1 µM

Question: And the GI50 (HS 578T breast)?
Answer: 6.22 µM

Question: What about the TGI (HS 578T breast) of the same compound?
Answer: 44.4 µM

Question: And the GI50 (786-0 renal)?
Answer: 1.64 µM

Question: What about the TGI (786-0 renal) of the same compound?
Answer: 3.41 µM

Question: What about the GI50 (SK-MEL-5 melanoma) of the same compound?
Answer: 3 µM

Question: And the TGI (SK-MEL-5 melanoma)?
Answer: 11.5 µM

Question: And the GI50 (UACC-257 melanoma)?
Answer: 1.59 µM

Question: What about the TGI (UACC-257 melanoma) of the same compound?
Answer: 3.61 µM

Question: What about the GI50 (OVCAR-3 ovarian) of the same compound?
Answer: 1.31 µM

Question: What about the TGI (OVCAR-3 ovarian) of the same compound?
Answer: 2.77 µM

Question: And the GI50 (TK-10 renal)?
Answer: 1.98 µM

Question: And the TGI (TK-10 renal)?
Answer: 4.46 µM

Question: And the GI50 (DU-145 prostate)?
Answer: 1.02 µM

Question: And the TGI (DU-145 prostate)?
Answer: 2.47 µM

Question: What about the GI50 (SF-268 CNS) of the same compound?
Answer: 5.22 µM

Question: What about the TGI (SF-268 CNS) of the same compound?
Answer: 20 µM

Question: And the GI50 (IGROV1 ovarian)?
Answer: 1.33 µM

Question: What about the TGI (IGROV1 ovarian) of the same compound?
Answer: 3.86 µM

Question: And the GI50 (HCC-2998 colon)?
Answer: 2.43 µM

Question: And the TGI (HCC-2998 colon)?
Answer: 5.2 µM

Question: And the GI50 (A549 NSCLC)?
Answer: 14.1 µM

Question: What about the TGI (A549 NSCLC) of the same compound?
Answer: 35.3 µM

Question: And the GI50 (NCI-H460 lung)?
Answer: 7.23 µM

Question: And the TGI (NCI-H460 lung)?
Answer: 25.2 µM

Question: And the GI50 (CCRF-CEM leukemia)?
Answer: 0.424 µM

Question: What about the TGI (CCRF-CEM leukemia) of the same compound?
Answer: 6.03 µM

Question: What about the GI50 (CAKI-1 renal) of the same compound?
Answer: 1.19 µM

Question: What about the TGI (CAKI-1 renal) of the same compound?
Answer: 4.74 µM

Question: And the GI50 (SK-MEL-2 melanoma)?
Answer: 6.51 µM

Question: What about the TGI (SK-MEL-2 melanoma) of the same compound?
Answer: 24.2 µM

Question: What about the GI50 (COLO 205 colon) of the same compound?
Answer: 1.75 µM

Question: What about the TGI (COLO 205 colon) of the same compound?
Answer: 3.53 µM

Question: What about the GI50 (HOP-62 NSCLC) of the same compound?
Answer: 14.1 µM

Question: What about the TGI (HOP-62 NSCLC) of the same compound?
Answer: 30.7 µM

Question: And the GI50 (HT29 colon)?
Answer: 1.84 µM

Question: What about the TGI (HT29 colon) of the same compound?
Answer: 4.75 µM

Question: And the GI50 (OVCAR-4 ovarian)?
Answer: 2.34 µM

Question: What about the TGI (OVCAR-4 ovarian) of the same compound?
Answer: 8 µM

Question: And the GI50 (SW-620 colon)?
Answer: 1.12 µM
